From patent publication US20210078932A1, “3,4-DIHYDROXYPHENETHYL 3-HYDROXYBUTANOATE, PREPARATION AND USE THEREOF” (XI'AN JIAOTONG UNIVERSITY, priority 2019, published 2021)

Key:
[1] = tested on: rats with brain fatigue; experiment: Open field test in sleep-deprivation brain fatigue rat model; format: in vivo, SD rats; conditions: for amelioration of manic mood of the rats with brain fatigue: overall conclusion after administration; for average moving speed / number of movements: sleep-deprived rats, drug intragastrically daily, compared with brain fatigue group; for average moving speed: FIG. 2A; for number of movements: FIG. 2B
Procedure: (§1) 8-week-old adult male SD rats (body weight: 250 g) purchased from Experimental Animal Center of The Second Military Medical University in Shanghai were used in the experiments. The rats were kept in an animal room with controlled temperature (22° C. to 28° C.) and humidity (60%). The light of the room was maintained in a 12 h/12 h day/night light cycle. The rats were able to eat and drink freely during the experiments. A brain fatigue rat model was established by using the sleep deprivation method in the experiments. The experimental rats were divided into five groups, with 10 rats in each group.
The five groups are as follows: (1) a normal feeding group with normal saline intragastrically administered daily (hereinafter referred to as the control group); (2) a brain fatigue model group established by the sleep deprivation method, with normal saline intragastrically administered daily (hereinafter referred to as the brain fatigue group); (3) a brain fatigue model group established by the sleep deprivation method, with 35 mg/kg of hydroxytyrosol acetate intragastrically administered daily (hereinafter referred to as HTac group, as shown in the following table); (4) a brain fatigue model group established by the sleep deprivation method, with 23.6 mg/kg of […] intragastrically administered daily (hereinafter referred to as HBET group, as shown in the following table); (5) a brain fatigue model group established by the sleep deprivation method, with 42.9 mg/kg of hydroxytyrosol hydroxybutyrate intragastrically administered daily (hereinafter referred to as HTHB group, as shown in Table 1).
The rats were preconditioned in the animal room for one week, during which the drugs were intragastrically administered. From the second day of the acquisition training of the water maze experiment, the rats other than the control group were started to be subjected to the small-platform-over-water sleep deprivation to establish the brain fatigue stress model. The sleep deprivation apparatus was mainly composed of two parts: a water tank and a platform disposed in the tank. The tank was filled with water. The size of the platform can only for the hind legs of the rat to stand. The platform was fixed to the bottom of the tank, and the top surface of the platform is above the water surface. The rat was placed on the platform for sleep deprivation. Once the rat fell asleep, its muscle tension would decrease and its center of gravity would move forward, which would cause the rat to fall into the water and suddenly be awakened. In order to avoid this, the rat must keep a slight grip on the edge of the platform, which deprived the sleep of the rat and caused brain fatigue.
The open field test is a classic behavioral test to evaluate emotion of rodents, which is based on the principle that the rodents have instincts to fear an open field and have spontaneous phobotaxis activities. Abnormalities in phobotaxis can indicate emotional abnormalities of rodents. The apparatus of the open field test was mainly composed of a black PVC box and a video tracking system. The box was 80 cm in both length and width and 50 cm in height. A camera of the video tracking system was hung at a height of 1.5 meters from the bottom of the box. The rat can move freely in the open field box, and the camera facing the box recorded the movements of the rat. By using the video tracking system, the interior of the box was divided into 16 squares arranged in 4×4 matrix, in which 12 surrounding squares were defined as a surrounding area, and 4 internal squares were defined as a central area, respectively.
The open field test follows the last day of the water maze experiment. After the water maze experiment, each rat was put back into the cage and rested for 10 minutes. Then in the open field test, the rat was placed at the center of the box bottom in a quiet environment, and was video recorded by the camera for 5 minutes, after which the rat was removed from the box. […]

[2] = tested on: rats with brain fatigue; experiment: Morris water maze experiment (exploration test) in sleep-deprivation brain fatigue rat model; format: in vivo, SD rats
Procedure: as §1, with “group. […]” for “group.”

| Molecule | amelioration of manic mood compared with hydroxytyrosol acetate and ethyl β-hydroxybutyrate ([1]; overall comparison, in some indicators) | amelioration of manic mood of the rats with brain fatigue [1] | average moving speed [1] | number of movements [1] | improvement of learning and memory abilities of the rats with brain fatigue ([2]; overall conclusion, compared with hydroxytyrosol acetate and ethyl β-hydroxybutyrate) | swimming time in the quadrant IV (percentage) ([2]; sleep-deprived rats, drug intragastrically daily, compared with brain fatigue group, FIG. 1A) |
| --- | --- | --- | --- | --- | --- | --- |
| CC(O)CC(=O)OCCc1ccc(O)c(O)c1 (centres unmarked) [HTHB, 3,4-dihydroxyphenethyl 3-hydroxybutanoate] | better amelioration of manic mood | significantly ameliorated to certain degrees | significantly different | significantly different | more obviously improved the learning and memory abilities | significantly different |
| hydroxytyrosol acetate [HTac] | – | significantly ameliorated to certain degrees | significantly different | significantly different | – | – |
| CCOC(=O)CC(C)O (stereo not drawn) [HBET, ethyl β-hydroxybutyrate] | – | significantly ameliorated to certain degrees | significantly different | – | – | – |
